Legend:
Format in all cases: cell-based
HL-60(TB) = experiment: Cytotoxicity against human HL-60(TB) cells assessed as effect on cell growth at 10 uM incubated for 48 hrs by sulforhodamine B assay
HCT-15 = experiment: Cytotoxicity against human HCT15 cells assessed as effect on cell growth at 10 uM incubated for 48 hrs by sulforhodamine B assay; conditions: hct-15, 48 h
RPMI-8226 = experiment: Cytotoxicity against human RPMI8226 cells assessed as effect on cell growth at 10 uM incubated for 48 hrs by sulforhodamine B assay; conditions: rpmi-8226, 48 h
CCRF-CEM = experiment: Cytotoxicity against human CCRF-CEM cells assessed as effect on cell growth at 10 uM incubated for 48 hrs by sulforhodamine B assay
HOP-92 = experiment: Cytotoxicity against human HOP92 cells assessed as effect on cell growth at 10 uM incubated for 48 hrs by sulforhodamine B assay; conditions: hop-92, 48 h
PC-3 = experiment: Cytotoxicity against human PC3 cells assessed as effect on cell growth at 10 uM incubated for 48 hrs by sulforhodamine B assay; conditions: pc-3, 48 h
MOLT-4 = experiment: Cytotoxicity against human MOLT4 cells assessed as effect on cell growth at 10 uM incubated for 48 hrs by sulforhodamine B assay; conditions: molt-4, 48 h
IGROV-1 = experiment: Cytotoxicity against human IGROV1 cells assessed as effect on cell growth at 10 uM incubated for 48 hrs by sulforhodamine B assay; conditions: igrov-1, 48 h
OVCAR-4 = experiment: Cytotoxicity against human OVCAR4 cells assessed as effect on cell growth at 10 uM incubated for 48 hrs by sulforhodamine B assay; conditions: ovcar-4, 48 h
SW-620 = experiment: Cytotoxicity against human SW620 cells assessed as effect on cell growth at 10 uM incubated for 48 hrs by sulforhodamine B assay; conditions: sw-620, 48 h
Malme-3M = experiment: Cytotoxicity against human MALME-3M cells assessed as effect on cell growth at 10 uM incubated for 48 hrs by sulforhodamine B assay
U-251 = experiment: Cytotoxicity against human U251 cells assessed as effect on cell growth at 10 uM incubated for 48 hrs by sulforhodamine B assay; conditions: u-251, 48 h
ACHN = experiment: Cytotoxicity against human ACHN cells assessed as effect on cell growth at 10 uM incubated for 48 hrs by sulforhodamine B assay
M14 = experiment: Cytotoxicity against human M14 cells assessed as effect on cell growth at 10 uM incubated for 48 hrs by sulforhodamine B assay; conditions: m14, 48 h
NCI-H322M = experiment: Cytotoxicity against human NCI-H322M cells assessed as effect on cell growth at 10 uM incubated for 48 hrs by sulforhodamine B assay
NCI-H23 = experiment: Cytotoxicity against human NCI-H23 cells assessed as effect on cell growth at 10 uM incubated for 48 hrs by sulforhodamine B assay; conditions: nci-h23, 48 h
SNB-75 = experiment: Cytotoxicity against human SNB75 cells assessed as effect on cell growth at 10 uM incubated for 48 hrs by sulforhodamine B assay; conditions: snb-75, 48 h
SF-268 = experiment: Cytotoxicity against human SF268 cells assessed as effect on cell growth at 10 uM incubated for 48 hrs by sulforhodamine B assay; conditions: sf-268, 48 h
CAKI-1 = experiment: Growth inhibition of human Caki1 cells assessed as growth percentage at 10 uM incubated for 48 hrs by sulforhodamine B assay; conditions: caki-1, 48 h
MDA-MB-231 = experiment: Cytotoxicity against human MDA-MB-231 cells assessed as effect on cell growth at 10 uM incubated for 48 hrs by sulforhodamine B assay; conditions: mda-mb-231, 48 h

Measured: Activity

COc1ccc(CN2C(=O)[C@@H]3C/C(=C\N(C)C)C(=O)N3C2N(C)C)c(OC)c1 (stereo not given in full)
Non-Toxic: all assays above

O=C(NCc1ccc(Cl)cc1Cl)[C@@H]1CCC(=O)N1c1nccs1
Non-Toxic: all assays above

CN(C)/C=C1\C[C@H]2C(=O)N(Cc3ccccc3Cl)C(N(C)C)N2C1=O (stereo not given in full)
Non-Toxic: all assays above

CN1C(=O)CC[C@H]1C(=O)NCc1cc(C(F)(F)F)ccc1Cl
Non-Toxic: all assays above

COc1ccc(N2C(=O)[C@@H]3C/C(=C\N(C)C)C(=O)N3C2N(C)C)cc1 (stereo not given in full)
Non-Toxic: all assays above

O=C(NCc1ccc(Cl)cc1Cl)[C@@H]1CCC(=O)N1c1ccsc1
Non-Toxic: all assays above

COc1ccc(NC(=O)[C@@H]2CCC(=O)N2)cc1OC
Non-Toxic: all assays above

COc1ccccc1CN1C(=O)[C@@H]2C/C(=C\N(C)C)C(=O)N2C1N(C)C (stereo not given in full)
Non-Toxic: all assays above

O=C(NCc1ccccc1Cl)[C@@H]1CCC(=O)N1Cc1ccccc1
Non-Toxic: all assays above
